Patent publication US20060111368A1, “Phosphodiesterase inhibitor” (Kyowa Hakko Kogyo Co., Ltd., priority 2002, published 2006)
Like-named read-outs stand apart in the source and are kept apart here.

How the values were obtained:
PDE10A = molecular target: T1, PDE10A (Homo sapiens, UniProt Q9Y233); experiment: Activity of inhibiting PDE10A activity ([3H]cAMP decomposition inhibiting test); type: biochemical; settings: for inhibition at 1 µM: read-out: [3H] cAMP decomposition inhibition rate (%); for IC50: read-out: IC50 (concentration at which to inhibit [3H]cAMP decomposition by 50%)
T1 construct: made in house; host or cells: Sf9 insect cells (baculovirus, pVL1393)
T1 sequence (Q9Y233 340-1055): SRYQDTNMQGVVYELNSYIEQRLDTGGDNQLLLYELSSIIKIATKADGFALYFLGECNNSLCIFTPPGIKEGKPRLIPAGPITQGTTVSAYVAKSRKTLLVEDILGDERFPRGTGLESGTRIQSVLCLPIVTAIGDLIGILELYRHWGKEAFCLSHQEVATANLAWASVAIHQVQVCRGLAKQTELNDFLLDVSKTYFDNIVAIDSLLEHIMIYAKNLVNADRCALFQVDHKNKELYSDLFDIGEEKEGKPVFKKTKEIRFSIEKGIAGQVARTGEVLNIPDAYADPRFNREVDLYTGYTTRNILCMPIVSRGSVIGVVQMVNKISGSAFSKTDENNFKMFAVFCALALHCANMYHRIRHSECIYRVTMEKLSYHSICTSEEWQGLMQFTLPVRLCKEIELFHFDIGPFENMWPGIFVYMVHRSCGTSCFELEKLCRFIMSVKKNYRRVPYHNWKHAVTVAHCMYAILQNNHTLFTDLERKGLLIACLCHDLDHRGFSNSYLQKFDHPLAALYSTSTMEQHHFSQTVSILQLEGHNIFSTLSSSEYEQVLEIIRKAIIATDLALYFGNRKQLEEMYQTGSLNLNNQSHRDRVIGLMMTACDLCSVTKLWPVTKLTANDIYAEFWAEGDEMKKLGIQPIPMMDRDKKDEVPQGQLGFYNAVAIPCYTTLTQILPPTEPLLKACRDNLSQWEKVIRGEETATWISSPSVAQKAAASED
Method: Activity of Inhibiting PDE10A Activity (^3H]cAMP Decomposition Inhibiting Test)
PCR was performed using DNAs having base sequences described in SEQ ID NO. 1 and SEQ ID NO. 2 as primers and human kidney cDNA as a template to prepare a plasmid containing amplified fragments. The plasmid was cleaved with restriction endonucleases Pst I and Xba I to obtain a Pst I-Xba I fragment of 0.7 kb.
Meanwhile, Est clone (Cosmo Bio, Tokyo) of GenBank, ACCESSION WO 4835 was cleaved with restriction endonucleases Kpn I and Pst I to obtain a Kpn I-Pst I fragment of 1.5 kb.
The resulting Pst I-Xba I fragment of 0.7 kb and Kpn I-Pst I fragment of 1.5 kb were subcloned in a Kpn I-Xba I site of pBluescript II KS(−) (STRATAGENE, La Jolla, Calif., USA),to construct a plasmid having a cDNA fragment completely including a catalyst region of PDE10A. Subsequently, the plasmid was cleaved with restriction endonucleases Kpn I and Not I to obtain a Kpn I-Not I fragment of 2.2 kb.
The resulting Kpn I-Not I fragment of 2.2 kb and a linker having a BamH I-Kpn I cleavage surface prepared by synthetic DNA having base sequences described in SEQ ID NOS. 3 and 4 were subcloned in a BamH I-Not I site of pVL1393 (PharMingen, San Diego, Calif., USA) to obtain a plasmid for preparation of Baculovirus. The plasmid contains a DNA encoding a peptide in which methionine, FLAG tag and a peptide having a 64th to 779th amino acid sequence of PDE10A [GenBank, ACCESSION NP 006652: Gene, vol. 234, p. 109 (1999), J. Biol. Chem., vol. 274, p. 18438 (1999)] are bound in the order.
The above gene recombinational manipulation was performed according to the method described in Molecular Cloning, 2nd edition, Cold Spring Harbor Laboratory Press, New York (1989).
The expression of PDE10A was conducted according to the Baculovirus expression vector system manual (PharMingen) using insect cells. As insect cells, Sf9 cells (Asahi Technoglass, Tokyo) were used. Sf9 cells were infected with a supernatant (co-transfection sup) containing PDE10A expression virus prepared according to the manual, and cultured at 27° C. for 4 days. The cells were recovered, washed with a phosphate-buffered saline (PBS), and then suspended in an extraction solution [20 mmol/L Tris-acetate (pH 7.5), 2 mmol/L MgCl2, 1 mmol/L dithiothreitol, 1 mmol/L ethylenediaminetetraacetic acid (EDTA), 0.25 mol/L sucrose, 250 unit/mL aprotinin, 40 μg/mL phenylmethylsulfonyl fluoride, and 1 μg/mL pepstatin A]. The cells were disrupted in ice with the maximum output under conditions of 5 seconds and five times using an ultrasonic disruption machine (TOMY model UR-200R, TOMY, Tokyo). A soluble fraction was obtained by centrifugation under 10,000 rpm of the fraction at 4° C. for 30 minutes, and the resulting soluble fraction was used for measuring the PDE activity.
The PDE activity was measured according to the method described in Methods Enzymol., vol. 159, p. 457 (1988).
Using [^3H]cAMP as a substrate, an enzyme reaction was conducted in a reaction solution containing 300 μL of 50 mmol/L N,N-bis (2-hydroxyethyl)-2-aminoethanesulfonic acid (pH 7.2), 1 mmol/L MgCl2 and 0.1 mmol/L ethylene glycol-bis (β-aminoethyl ether)-N,N,N′,N′-tetraacetic acid: EGTA). The concentration of the substrate was 0.2 μmol/L. To 95 μL of an enzyme dilute solution were added 5 μL of a test compound (DMSO solution) and 200 μL of a substrate solution. The mixture was incubated at 30° C. for 20 minutes, and then HCl was added to stop the reaction. The reaction product (5′-AMP) was converted to adenosine using 5′-nucleotidase, and separated the unreacted product from the reactant by DEAE-Sephadex A-25 column (Amersham Pharmacia Biotech, Uppsala, Sweden). The elute was moved to scintillation vials, 6 mL of Ultima Gold (Packard Instrument, Meriden, Conn., USA) was added, and the radioactivity was measured for 2 minutes using a liquid scintillation counter (Beckman LS6500, Beckman, Tokyo),. […]

[1] = Test compound concentration 1 μmol/L, substrate [3H]cAMP 0.2 μmol/L

Question: For `CCOc1ccccc1-c1ccc(-c2nc3ccc(F)cc3c(CO)c2C)cc1` [Compound 3, 2-(21-Ethoxybiphenyl-4-yl)-6-fluoro-4-hydroxymethyl-3-methylquinoline], which inhibition at 1 µM (PDE10A; [1]) is on record?
Answer: 97%

Question: What about the IC50 (PDE10A; substrate [3H]cAMP 0.2 μmol/L) of the same compound?
Answer: 76 nM

Question: What about the melting point of the same compound?
Answer: 140 to 143 °C

Question: For `CCOc1cccc(-c2ccc(-c3nc4ccc(F)cc4c(CO)c3C)cc2)c1` [Compound 4, 2-(31-Ethoxybiphenyl-4-yl)-6-fluoro-4-hydroxymethyl-3-methylquinoline], which inhibition at 1 µM (PDE10A; [1]) is on record?
Answer: 83%

Question: And the melting point?
Answer: 199 to 200 °C

Question: What does the source list for `COc1ccc(-c2ccc(-c3nc4ccc(F)cc4c(CO)c3C)cc2)c(OC)c1` [Compound 8, 2-(2′,4′-dimethoxybiphenyl-4-yl)-6-fluoro-4-hydroxym ethyl-3-methylquinoline]?
Answer: inhibition at 1 µM (PDE10A; [1]): 68%; melting point: 205 to 207 °C

Question: Which results are given for `Cc1c(-c2ccc(-c3ccccc3-c3ccccc3)cc2)nc2ccc(F)cc2c1C(=O)O` [Compound C, 6-Fluoro-3-methyl-2-([1,1′:2′,1″-terphenyl)-4-yl)quinoline-4-carboxylic acid]?
Answer: inhibition at 1 µM (PDE10A): 99%; IC50 (PDE10A; substrate [3H]cAMP 0.2 μmol/L): 0.9 nM; melting point: > 300 °C

Question: Which results are given for `Cc1c(-c2ccc(-c3ccccc3CNc3ccccc3)cc2)nc2ccc(F)cc2c1CO` [Compound 13, 6-Fluoro-4-hydroxymethyl-3-methyl-2-[2′-(phenylamino)methylbiphenyl-4-yl]quinoline]?
Answer: inhibition at 1 µM (PDE10A; [1]): 90%; IC50 (PDE10A; substrate [3H]cAMP 0.2 μmol/L): 103 nM; melting point: 201 to 202 °C

Question: Which inhibition at 1 µM (PDE10A; [1]) does the source give for `Cc1c(-c2ccc(-c3ccccc3CN3CCOCC3)cc2)nc2ccc(F)cc2c1C(=O)O` [M, 6-Fluoro-3-methyl-2-(2′-morpholinomethylbiphenyl-4-yl)quinoline-4-carboxylic acid] here?
Answer: 98%

Question: And the IC50 (PDE10A; substrate [3H]cAMP 0.2 μmol/L)?
Answer: 27 nM

Question: And the melting point?
Answer: 163 to 165 °C

Question: Which inhibition at 1 µM (PDE10A; [1]) does the source give for `COc1ccccc1-c1ccc(-c2nc3ccc(F)cc3c(CO)c2C)cc1` [Compound 2, 6-Fluoro-4-hydroxymethyl-2-(2′-methoxybiphenyl-4-yl)-3-methylquinoline] here?
Answer: 97%

Question: What about the IC50 (PDE10A; substrate [3H]cAMP 0.2 μmol/L) of the same compound?
Answer: 66 nM

Question: And the melting point?
Answer: 178 to 179 °C
